Read-outs that look alike come from different tables or passages of the source.
Assays:
[1] = system: Plasmodium falciparum Dd2 asexual blood stage parasites; assay: microbe, parasite or virus in culture; set-up: species or system Plasmodium falciparum Dd2 in human erythrocytes; single determination (one 11-point concentration-response curve); conditions: 72 h, read-out: AC50
in vitro = conditions: human
[2] = Plasmodium falciparum, DD2, Erythrocyte
[3] = HepG2-A16-CD81EGFP cells, uninfected

Row | SMILES | AC50 [1, 2] [nM] | viability at 48 h, 1 µM (in vitro; [3]) [%] | viability at 48 h, 3 µM (in vitro; [3]) [%] | further results
1 | CCCc1cc(=O)oc2cc(C)cc(OCC(=O)Nc3cccnc3)c12 [MLS001160340-01] | 531 | 106 | 99 | 
2 | Oc1ccc(C2NCc3ccccc3-n3cccc32)cc1Cl (centres unmarked) [MLS000878874-01] |  |  |  | AC50 [1]: 1190 nM; viability at 66 h (in vitro): 108%
3 | CCC(=O)N(C1=C(NC(C)C)C(=O)c2ccccc2C1=O)C(C)C [MLS000696323-01] | 2370 | 106 | 105 | 
4 | CCn1c(SCC(=O)NCCc2ccccc2)nc2sc3c(c2c1=O)CCN(C)C3 [MLS000332196-01] | 5310 | 96 | 87 | 
5 | CCC(C)c1ccc(O)c(NC(=O)c2cncc(Br)c2)c1 (centres unmarked) [MLS000062368-01] | 2990 | 113 | 103 | 
6 | O=C(O)c1ccc(N/N=C/c2cn(-c3ccccc3)nc2-c2cccs2)cc1 [MLS000759699-01] | 2660 | 112 | 103 | 
7 | COc1cc2c3nnc(-c4ccc(F)cc4)c-3cn(Cc3ccccc3F)c2cc1OC [MLS000419426-01] | 3760 | 113 | 100 | 
8 | COCCCNc1nc2cc(OC)c(OC)cc2c2nc(-c3ccccc3)nn12 [NCGC00112853-01] | 237 | 105 | 99 | 
9 | COc1ccc(C2C(C(=O)N3CCCCC3)CC(=O)N2c2ccc(OC)cc2)cc1 (centres unmarked) [MLS000519691-01] | 7500 | 85 | 91 | 
10 | CC(C)N1C(=S)N(Cc2ccco2)C(=O)C1CC(=O)Nc1ccccc1 (centres unmarked) [MLS000729199-01] | 1680 | 99 | 109 | 
11 | C=C(C)CSc1nc2sc3c(c2c(=O)n1C1CCCCC1)CCN(C)C3 [MLS000779440-01] | 2370 | 98 | 91 | 
12 | Cc1cc(N2CCN(C)CC2)nc2ccc(NC(=O)c3ccc(Br)o3)cc12 [MLS000086536-01] | 6680 | 104 | 104 | 
13 | COc1cc2c(cc1O)CC[n+]1cc3c(OC)c(OC)ccc3cc1-2 [MLS000563433-01] | 7500 |  |  | viability at 66 h (in vitro; [3]): 97.8%
14 | CCCc1cc(=O)oc2cc(C)cc(OCC(=O)NC3CC3)c12 [MLS001159103-01] | 4730 | 121 | 104 | 
15 | O=C(c1ccc([N+](=O)[O-])o1)N1CCN(c2nc3c(F)cc(F)cc3s2)CC1 [MLS001234228-01] | 5960 | 103 | 108 | 
16 | CC(C)C(=O)OCC(=O)[C@@]12O[C@H](C3CCCCC3)O[C@@H]1C[C@H]1[C@@H]3CCC4=CC(=O)C=C[C@]4(C)[C@H]3[C@@H](O)C[C@@]12C [NCGC00167484-01] | 2660 | 97 | 94 | 
17 | Clc1ccc2c(NCc3ccccn3)ccnc2c1 [MLS001178012-01] | 2110 |  |  | viability at 66 h (in vitro; [3]): 107%
18 | COc1ccc(-c2oc3ccccc3c2C#Cc2cncn2C)cc1 [MLS002402884-01] | 1060 | 112 | 95 | 
19 | CCOC(=O)c1c(CN(C)C)n(-c2ccc(C)cc2)c2cc(Br)c(O)cc12 [MLS000705141-01] | 4220 | 101 | 101 | 
20 | CCC(O)(CC)C(=O)NN(C(=O)Nc1csc2c1CCCC2)c1ccccc1 [MLS000554206-01] | 2990 | 98 | 95 | 
21 | Cc1ccc(Cl)cc1N1CCN(Cc2cc3c(cc2O)CCC3)CC1 [MLS000572148-01] | 188 | 103 | 99 | 
22 | CCOC(=O)CC(=O)CSc1nc2ccccc2c(=O)n1-c1ccc(C(=O)N2CCOCC2)cc1 [MLS000095558-01] | 13300 | 87 | 87 | 
23 | CC1(C)Cc2c(c(N3CCOCC3)nc3snc(Br)c23)CO1 [MLS000071231-01] | 299 | 87 | 86 | 

Row | SMILES | AC50 [1, 2] [nM] | viability at 48 h, 1 µM (in vitro; [3]) [%] | viability at 48 h, 3 µM (in vitro; [3]) [%] | further results
24 | Nc1cc2ccncc2c2ccccc12 [MLS000766157-01] | 266 | 98 | 92 | 
25 | CCOc1ccccc1C1c2[nH]c3ccccc3c2C[C@H]2C(=O)N(C3CCN(Cc4ccccc4)CC3)CC(=O)N12 (some centres unmarked) [MLS001215140-01] | 2370 | 106 | 101 | 
26 | COc1cccc(Cn2c(Oc3ccccc3)nc3c2c(=O)n(C)c(=O)n3C)c1 [MLS000038011-01] | 4730 | 107 | 98 | 
27 | CN(C)c1cc[n+](CC(=O)c2ccc(Br)cc2)cc1 [MLS000678949-01] | 7500 |  |  | viability at 66 h (in vitro; [3]): 103%
28 | Oc1ccc(Cl)cc1-c1cc(C(F)(F)C(F)F)nc(-c2ccccc2)n1 [MLS000530553-01] | 841 | 93 | 87 | 
29 | COc1cc(O)c(C(CCN2CCN(c3ccccc3)CC2)c2ccc(N(C)C)cc2)c(OC)c1 (centres unmarked) [MLS000879536-01] | 596 | 102 | 99 | 
30 | Cc1cccc(NC2=C(NC(=O)c3ccccc3)C(=O)c3ccccc3C2=O)c1 [MLS000392330-01] | 944 | 98 | 95 | 
31 | CCOC(=O)c1c(-c2ccccc2)oc2ccc(O)c(CN3CCCC3)c12 [MLS000530619-01] | 596 | 98.8 |  | viability at 48 h (in vitro; [3]): 98.8%
32 | C=CCOC(=O)C(C#N)c1nc2ccccc2nc1N1CCC(C(=O)OCC)CC1 (centres unmarked) [MLS000036470-01] | 2370 | 108 | 100 | 
33 | CCOC(=O)c1nc2cc3n(c(CC(C)C)c-2c1C)CC(C)=C3C [MLS000594428-01] | 7500 | 108 |  | viability at 48 h (in vitro; [3]): 108%
34 | CCCCCCSc1ccc([C@H]2N[C@@](Cc3ccccc3)(C(=O)OC)[C@H]3C(=O)N(C)C(=O)[C@@H]23)cc1 [MLS001361994-01] | 4730 | 112 | 100 | 
35 | COc1ccc(CN2CCCC(C(=O)c3ccc(Cl)cc3)C2)c(O)c1 (centres unmarked) [MLS000998855-01] | 531 |  |  | viability at 48 h, 1 µM (in vitro): 101%; viability at 48 h, 3 µM (in vitro): 103%
36 | Cc1cccn2c(=O)c3cc(C(=O)NC4CCCC4)c(=N)n(CCc4ccccc4)c3nc12 [MLS001221260-01] | 1880 | 95 | 92 | 
37 | O=C1C(c2ccccc2)=[N+](O)c2ccccc21 [MLS001241052-01] | 1880 |  |  | viability at 66 h (in vitro; [3]): 97.9%
38 | Cc1cccc(NC(=O)Cn2c(C)c(C#N)c3ccccc32)c1C [MLS000030212-01] | 5960 | 99.9 |  | viability at 48 h (in vitro; [3]): 99.9%
39 | CCCCOc1ccc(C(=O)N/C(=C\c2cccc([N+](=O)[O-])c2)C(=O)OC(C)C)cc1 [MLS000574332-01] | 2110 | 101 | 100 | 
40 | COC(=O)[C@]1(C)CCC[C@@]2(C)C3CC[C@@]4(C)C[C@]3(CCC21)CC(=O)N4Cc1ccc(OC)cc1 (some centres unmarked) [MLS002207414-01] | 3760 |  |  | viability at 66 h (in vitro; [3]): 96.7%
41 | CCOc1ccc(NC2=C(OC)C(=O)c3ccccc3C2=O)cc1 [MLS000588108-01] | 376 | 101 | 98 | 
42 | CCOC(=O)c1nnn(-c2nonc2-n2cccc2)c1CN1CCCCC1 [MLS000090434-01] | 7500 | 102 | 100 | 
43 | O=C(CN1C2=NCCCN2c2ccccc21)c1ccc(Cl)cc1Cl [MLS000662689-01] | 6680 | 99 | 94 | 
44 | CN(C)c1cc[n+](CC(=O)c2cccs2)cc1 [MLS001207444-01] | 6680 |  |  | viability at 66 h (in vitro; [3]): 101%
45 | CCOCc1cnc(C)nc1NCC(=O)c1c(C)[nH]c2cc(C)ccc12 [MLS000595215-01] | 4220 | 97 | 94 | 
